Assay results as given in ChEMBL document CHEMBL5244269, “Improving metabolic stability and removing aldehyde oxidase liability in a 5-azaquinazoline series of IRAK4 inhibitors” (Bioorg Med Chem, 2020).

Key:
Type in all cases: functional
OCI-Ly10 [1] = test: Growth inhibition of human OCILY10 cells at 0.17 uM incubated for 3 days in presence of 0.17 uM acalabrutinib relative to control; conditions: OCI-Ly10, 72 h, time 3 day, read-out: GI
OCI-Ly10 [2] = test: Growth inhibition of human OCILY10 cells at 10 uM incubated for 3 days in presence of 0.33 uM acalabrutinib relative to control; conditions: OCI-Ly10, 72 h, time 3 day, read-out: GI
SUD4 [3] = test: Growth inhibition of human SU-DHL-4 cells at 0.17 uM incubated for 3 days in presence of 0.033 uM acalabrutinib relative to control; conditions: SU-DHL-4, 72 h, time 3 day, read-out: GI
SUD4 [4] = test: Growth inhibition of human SU-DHL-4 cells at 10 uM incubated for 3 days in presence of 0.33 uM acalabrutinib relative to control; conditions: SU-DHL-4, 72 h, time 3 day, read-out: GI
SUD4 [5] = test: Growth inhibition of human SU-DHL-4 cells at 10 uM incubated for 3 days in presence of 0.003 uM acalabrutinib relative to control; conditions: SU-DHL-4, 72 h, time 3 day, read-out: GI
SUD4 [6] = test: Growth inhibition of human SU-DHL-4 cells at 3.3 uM incubated for 3 days in presence of 0.17 uM acalabrutinib relative to control; conditions: SU-DHL-4, 72 h, time 3 day, read-out: GI
OCI-Ly10 [7] = test: Growth inhibition of human OCILY10 cells at 3.3 uM incubated for 3 days in presence of 0.017 uM acalabrutinib relative to control; conditions: OCI-Ly10, 72 h, time 3 day, read-out: GI
SUD4 [8] = test: Growth inhibition of human SU-DHL-4 cells at 1.7 uM incubated for 3 days in presence of 0.033 uM acalabrutinib relative to control; conditions: SU-DHL-4, 72 h, time 3 day, read-out: GI
OCI-Ly10 [9] = test: Growth inhibition of human OCILY10 cells at 0.33 uM incubated for 3 days in presence of 0.33 uM acalabrutinib relative to control; conditions: OCI-Ly10, 72 h, time 3 day, read-out: GI
OCI-Ly10 [10] = test: Growth inhibition of human OCILY10 cells at 10 uM incubated for 3 days in presence of 0.003 uM acalabrutinib relative to control; conditions: OCI-Ly10, 72 h, time 3 day, read-out: GI
SUD4 [11] = test: Growth inhibition of human SU-DHL-4 cells at 0.33 uM incubated for 3 days in presence of 0.17 uM acalabrutinib relative to control; conditions: SU-DHL-4, 72 h, time 3 day, read-out: GI
OCI-Ly10 [12] = test: Growth inhibition of human OCILY10 cells at 0.17 uM incubated for 3 days in presence of 0.33 uM acalabrutinib relative to control; conditions: OCI-Ly10, 72 h, time 3 day, read-out: GI
SUD4 [13] = test: Growth inhibition of human SU-DHL-4 cells at 10 uM incubated for 3 days in presence of 0.033 uM acalabrutinib relative to control; conditions: SU-DHL-4, 72 h, time 3 day, read-out: GI
SUD4 [14] = test: Growth inhibition of human SU-DHL-4 cells at 1.7 uM incubated for 3 days in presence of 0.003 uM acalabrutinib relative to control; conditions: SU-DHL-4, 72 h, time 3 day, read-out: GI
SUD4 [15] = test: Growth inhibition of human SU-DHL-4 cells at 1.7 uM incubated for 3 days in presence of 0.33 uM acalabrutinib relative to control; conditions: SU-DHL-4, 72 h, time 3 day, read-out: GI
SUD4 [16] = test: Growth inhibition of human SU-DHL-4 cells at 0.17 uM incubated for 3 days in presence of 0.33 uM acalabrutinib relative to control; conditions: SU-DHL-4, 72 h, time 3 day, read-out: GI
OCI-Ly10 [17] = test: Growth inhibition of human OCILY10 cells at 1.7 uM incubated for 3 days in presence of 0.17 uM acalabrutinib relative to control; conditions: OCI-Ly10, 72 h, time 3 day, read-out: GI
SUD4 [18] = test: Growth inhibition of human SU-DHL-4 cells at 0.33 uM incubated for 3 days in presence of 0.33 uM acalabrutinib relative to control; conditions: SU-DHL-4, 72 h, time 3 day, read-out: GI
OCI-Ly10 [19] = test: Growth inhibition of human OCILY10 cells at 0.33 uM incubated for 3 days in presence of 0.033 uM acalabrutinib relative to control; conditions: OCI-Ly10, 72 h, time 3 day, read-out: GI
SUD4 [20] = test: Growth inhibition of human SU-DHL-4 cells at 10 uM incubated for 3 days in presence of 0.17 uM acalabrutinib relative to control; conditions: SU-DHL-4, 72 h, time 3 day, read-out: GI
OCI-Ly10 [21] = test: Growth inhibition of human OCILY10 cells at 0.17 uM incubated for 3 days in presence of 0.033 uM acalabrutinib relative to control; conditions: OCI-Ly10, 72 h, time 3 day, read-out: GI
OCI-Ly10 [22] = test: Growth inhibition of human OCILY10 cells at 10 uM incubated for 3 days in presence of 0.017 uM acalabrutinib relative to control; conditions: OCI-Ly10, 72 h, time 3 day, read-out: GI
OCI-Ly10 [23] = test: Growth inhibition of human OCILY10 cells at 1.7 uM incubated for 3 days in presence of 0.33 uM acalabrutinib relative to control; conditions: OCI-Ly10, 72 h, time 3 day, read-out: GI
OCI-Ly10 [24] = test: Growth inhibition of human OCILY10 cells at 3.3 uM incubated for 3 days in presence of 0.003 uM acalabrutinib relative to control; conditions: OCI-Ly10, 72 h, time 3 day, read-out: GI
SUD4 [25] = test: Growth inhibition of human SU-DHL-4 cells at 0.17 uM incubated for 3 days in presence of 0.17 uM acalabrutinib relative to control; conditions: SU-DHL-4, 72 h, time 3 day, read-out: GI
SUD4 [26] = test: Growth inhibition of human SU-DHL-4 cells at 0.17 uM incubated for 3 days in presence of 0.003 uM acalabrutinib relative to control; conditions: SU-DHL-4, 72 h, time 3 day, read-out: GI
SUD4 [27] = test: Growth inhibition of human SU-DHL-4 cells at 3.3 uM incubated for 3 days in presence of 0.33 uM acalabrutinib relative to control; conditions: SU-DHL-4, 72 h, time 3 day, read-out: GI
SUD4 [28] = test: Growth inhibition of human SU-DHL-4 cells at 1.7 uM incubated for 3 days in presence of 0.17 uM acalabrutinib relative to control; conditions: SU-DHL-4, 72 h, time 3 day, read-out: GI
OCI-Ly10 [29] = test: Growth inhibition of human OCILY10 cells at 1.7 uM incubated for 3 days in presence of 0.003 uM acalabrutinib relative to control; conditions: OCI-Ly10, 72 h, time 3 day, read-out: GI
SUD4 [30] = test: Growth inhibition of human SU-DHL-4 cells at 10 uM incubated for 3 days in presence of 0.017 uM acalabrutinib relative to control; conditions: SU-DHL-4, 72 h, time 3 day, read-out: GI
OCI-Ly10 [31] = test: Growth inhibition of human OCILY10 cells at 1.7 uM incubated for 3 days in presence of 0.017 uM acalabrutinib relative to control; conditions: OCI-Ly10, 72 h, time 3 day, read-out: GI
SUD4 [32] = test: Growth inhibition of human SU-DHL-4 cells at 3.3 uM incubated for 3 days in presence of 0.033 uM acalabrutinib relative to control; conditions: SU-DHL-4, 72 h, time 3 day, read-out: GI
SUD4 [33] = test: Growth inhibition of human SU-DHL-4 cells at 3.3 uM incubated for 3 days in presence of 0.003 uM acalabrutinib relative to control; conditions: SU-DHL-4, 72 h, time 3 day, read-out: GI
SUD4 [34] = test: Growth inhibition of human SU-DHL-4 cells at 3.3 uM incubated for 3 days in presence of 0.017 uM acalabrutinib relative to control; conditions: SU-DHL-4, 72 h, time 3 day, read-out: GI
SUD4 [35] = test: Growth inhibition of human SU-DHL-4 cells at 0.33 uM incubated for 3 days in presence of 0.033 uM acalabrutinib relative to control; conditions: SU-DHL-4, 72 h, time 3 day, read-out: GI
SUD4 [36] = test: Growth inhibition of human SU-DHL-4 cells at 0.17 uM incubated for 3 days in presence of 0.017 uM acalabrutinib relative to control; conditions: SU-DHL-4, 72 h, time 3 day, read-out: GI
OCI-Ly10 [37] = test: Growth inhibition of human OCILY10 cells at 0.33 uM incubated for 3 days in presence of 0.17 uM acalabrutinib relative to control; conditions: OCI-Ly10, 72 h, time 3 day, read-out: GI
OCI-Ly10 [38] = test: Growth inhibition of human OCILY10 cells at 3.3 uM incubated for 3 days in presence of 0.17 uM acalabrutinib relative to control; conditions: OCI-Ly10, 72 h, time 3 day, read-out: GI
OCI-Ly10 [39] = test: Growth inhibition of human OCILY10 cells at 3.3 uM incubated for 3 days in presence of 0.33 uM acalabrutinib relative to control; conditions: OCI-Ly10, 72 h, time 3 day, read-out: GI
OCI-Ly10 [40] = test: Growth inhibition of human OCILY10 cells at 10 uM incubated for 3 days in presence of 0.17 uM acalabrutinib relative to control; conditions: OCI-Ly10, 72 h, time 3 day, read-out: GI
OCI-Ly10 [41] = test: Growth inhibition of human OCILY10 cells at 1.7 uM incubated for 3 days in presence of 0.033 uM acalabrutinib relative to control; conditions: OCI-Ly10, 72 h, time 3 day, read-out: GI

Work on `Cc1ncc(-c2nc3c(OC4(C)CC4)nc(Nc4cnn(C5CCN(C)CC5)c4)nc3cc2F)cn1` yielded an inhibition of growth at 0.17 µM (OCI-Ly10 [1]) of 147%, an inhibition of growth at 10 µM (OCI-Ly10 [2]) of 197% and an inhibition of growth at 0.17 µM (SUD4 [3]) of -4%. The inhibition of growth at 10 µM (SUD4 [4]) was 0%, the inhibition of growth at 10 µM (SUD4 [5]) was 1% and the inhibition of growth at 3.3 µM (SUD4 [6]) was -3%. It also gave an inhibition of growth at 3.3 µM (OCI-Ly10 [7]) of 194%, an inhibition of growth at 1.7 µM (SUD4 [8]) of -4% and an inhibition of growth at 0.33 µM (OCI-Ly10 [9]) of 172%. For the same compound, the inhibition of growth at 10 µM (OCI-Ly10 [10]) was 195%, the inhibition of growth at 0.33 µM (SUD4 [11]) was -2% and the inhibition of growth at 0.17 µM (OCI-Ly10 [12]) was 138%. It also gave an inhibition of growth at 10 µM (SUD4 [13]) of -2%, an inhibition of growth at 1.7 µM (SUD4 [14]) of -1% and an inhibition of growth at 1.7 µM (SUD4 [15]) of -2%. For the same compound, the inhibition of growth at 0.17 µM (SUD4 [16]) was -2%, the inhibition of growth at 1.7 µM (OCI-Ly10 [17]) was 190% and the inhibition of growth at 0.33 µM (SUD4 [18]) was -1%. The inhibition of growth at 0.33 µM (OCI-Ly10 [19]) was 155%, the inhibition of growth at 10 µM (SUD4 [20]) was -1% and the inhibition of growth at 0.17 µM (OCI-Ly10 [21]) was 117%. The inhibition of growth at 10 µM (OCI-Ly10 [22]) was 198%, the inhibition of growth at 1.7 µM (OCI-Ly10 [23]) was 193% and the inhibition of growth at 3.3 µM (OCI-Ly10 [24]) was 156%. It also gave an inhibition of growth at 0.17 µM (SUD4 [25]) of -3%, an inhibition of growth at 0.17 µM (SUD4 [26]) of -1% and an inhibition of growth at 3.3 µM (SUD4 [27]) of -2%. It also gave an inhibition of growth at 1.7 µM (SUD4 [28]) of -3%, an inhibition of growth at 1.7 µM (OCI-Ly10 [29]) of 93% and an inhibition of growth at 10 µM (SUD4 [30]) of 2%. The inhibition of growth at 1.7 µM (OCI-Ly10 [31]) was 188%, the inhibition of growth at 3.3 µM (SUD4 [32]) was -4% and the inhibition of growth at 3.3 µM (SUD4 [33]) was -1%. For the same compound, the inhibition of growth at 3.3 µM (SUD4 [34]) was 0%, the inhibition of growth at 0.33 µM (SUD4 [35]) was -3% and the inhibition of growth at 0.17 µM (SUD4 [36]) was 0%. It also gave an inhibition of growth at 0.33 µM (OCI-Ly10 [37]) of 169%, an inhibition of growth at 3.3 µM (OCI-Ly10 [38]) of 194% and an inhibition of growth at 3.3 µM (OCI-Ly10 [39]) of 194%. The inhibition of growth at 10 µM (OCI-Ly10 [40]) was 199% and the inhibition of growth at 1.7 µM (OCI-Ly10 [41]) was 193%.
